# Experimental data as given in US6649609B2, “Benzimidazole derivatives and pharmaceutical compositions comprising these compounds” (Neurosearch A/S, priority 1999, dated 2003).
# pIC50: −log10 of the molar value. Where “and” joins values, the source holds several entries; their conditions need not be identical. Identical values can stand only once. Marks after values point to notes of the source that are not given here.
# What was measured:
# [1] = tested on: GABAA receptor-ion channel complex (forebrain); assay: In vivo inhibition of 3H-FNM binding; design: species or system mouse; conditions: female NMRI mice, test substance i.v., inhibition of specific [3H]FNM binding in forebrain
# Experimental: 13B: In vivo inhibition of ^3H-FNM binding
# [^3H]FNM can also be used for in vivo receptor labelling studies in mouse. Accumulation of [^3H]FNM binding will occur all over the brain as GABAA receptors are widely distributed.
# All test substances used are solutions prepared in 10% TWEEN 80. Groups of three female NMRI mice (25 g) are injected i.v. via the tail vein with 5.0 μCi of [3H]FNM in 0.2 ml saline. Fifteen min after injection with [^3H]FNM the test substance is administered i.v. Twenty min after injection with [^3H]FNM, mice are killed by decapitation, the forebrains rapidly excised and homogenized in 12 ml of ice-cold 50 mM Tris-citrate, pH 7.1 using an Ultra-Turrax homogenizer. Three aliquots of 1 ml are immediately filtered through GF/C glass fibre filters and washed with 2×5 ml of ice-cold buffer. The amounts of radioactivity on the filters and in 200 μl of the homogenate are determined by conventional scintillation counting. Groups of untreated mice serves as controls. To determine non-specific binding groups of mice are injected with Clonazepam (25 mg/kg) i.p. 10 min before [3H]FNM injection. Specific binding is the amount of binding in controls minus the amount of binding in Clonazepam treated mice.
# The ED50 value is determined from dose response curves. […] [formula]
# where Co is specific binding in controls and Cx is the specific binding in mice treated with test substance.
# [2] = tested on: clonic convulsions induced by pentylenetetrazol (PTZ); assay: PTZ clonic convulsions; type: in vivo; conditions: female NMRI mice; for ED100: i.v., dose increasing the PTZ threshold to 100 mg PTZ/kg (linear regression); for ptz threshold at 30 mg/kg: test substance 30 mg/kg i.v., PTZ infused after 5 min, vehicle threshold 37-39 mg PTZ/kg
# Experimental: The purpose of this test is to show antagonism of clonic convulsions induced by pentylenetetrazol (PTZ). PTZ induces clonic convulsions in mice after i.v. infusion. Antagonism of PTZ-induced convulsions is a measure for the agonistic character of ligands for the benzodiazepine recognition site.
# Female NMRI mice (Bomholdtgaard, Ry), 20 g, 6 mice in each group are administered i.v. with vehicle or test substance. After five minutes the PTZ-solution is infused intravenously at a speed of 0.7 ml/minute through a cannula placed in the tail vein. The time from initiation of the infusion to appearance of clonic convulsions is recorded.
# The dose of PTZ required for inducing convulsion in each mouse is calculated as PTZ/kg body weight. Means ±sd for each experimental group of 6 mice is calculated. ED100 is calculated by linear regression expressing the dose increasing the PTZ threshold to 100 mg PTZ/kg.
# The threshold of vehicle treated controls is in the range of 37-39 mg PTZ/kg. As a control in each series of experiments PTZ is infused into 6 vehicle treated mice.
# [3] = molecular target: benzodiazepine receptor (GABAA receptor complex), cerebral cortex membranes; assay: In vitro inhibition of 3H-flunitrazepam (3H-FNM) binding; conditions: inhibition of specific 3H-FNM (1 nM) binding, rat cerebral cortex membranes
# Experimental: The GABA recognition site and the benzodiazepine modulatory unit can selectively be labelled with ^3H-muscimol and ^3H-flunitrazepam, respectively.
# 13A: In vitro inhibition of ^3H-flunitrazepam (^3H-FNM) binding
# Preparations are performed at 0-4° C. unless otherwise indicated. Cerebral cortex from male Wistar rats (150-200 g) is homogenised for 5-10 sec in 20 ml Tris-HCl (30 mM, pH 7.4) using an Ultra-Turrax homogeniser. The suspension is centrifuged at 27,000× g for 15 min and the pellet is washed three times with buffer (centrifuged at 27,000× g for 10 min). The washed pellet is homogenized in 20 ml of buffer and incubated on a water bath (37° C.) for 30 min to remove endogenous GABA and then centrifuged for 10 min at 27,000× g. The pellet is then homogenized in buffer and centrifuged for 10 min at 27,000× g. The final pellet is resuspended in 30 ml buffer and the preparation is frozen and stored at −20° C.
# The membrane preparation is thawed and centrifuged at 2° C. for 10 min at 27,000× g. The pellet is washed twice with 20 ml 50 mM Tris-citrate, pH 7.1 using an Ultra-Turrax homogeniser and centrifuged for 10 min at 27,000× g. The final pellet is resuspended in 50 mM Tris-citrate, pH 7.1 (500 ml buffer per g of original tissue), and then used for binding assays. Aliquots of 0.5 ml tissue are added to 25 μl of test solution and 25 μl of ^3H-FNM (1 nM, final concentration), mixed and incubated for 40 min at 2° C., Non-specific binding is determined using Clonazepam (1 μM, final concentration). After incubation the samples are added 5 ml of ice-cold buffer and poured directly onto Whatman GFIC glass fibre filters under suction and immediately washed with 5 ml ice-cold buffer. The amount of radioactivity on the filters is determined by conventional liquid scintillation counting. Specific binding is total binding minus non-specific binding.
# The test value will be given as IC50 (the concentration (μM) of the test substance which inhibits the specific binding of ^3H-FNM by 50%). [formula]
# Co is specific binding in control assays, and
# Cx is the specific binding in the test assay.
# (The calculations assume normal mass-action kinetics).
# pigs = assay: Evaluation of efficacy: anaesthesia after bolus injection; type: in vivo; conditions: pigs 25-30 kg; for Induction Time / Maintained anaesthesia / Normalising time following awakening: i.v. bolus, dose per compound as in Table 10 (0.03-3 mg/kg)
# Experimental: Aqueous solutions of the test substances (50 mg/ml isotonic glucose) were administered to pigs (25-30 kg) as bolus injections. The actual dose of each substance is included in the table below.
# These observations are compiled in Table 10 below. This table also provides comparative data for compounds of the prior art (WO 98/17651).
SMILES,In vivo binding ED50 [1] [mg/kg],ED100 [2] [mg/kg],ptz threshold at 30 mg/kg [2] [mg/kg],pIC50 [3],Induction Time (pigs) [min],Maintained anaesthesia (pigs),Normalising time following awakening (pigs) [min],melting point,Observation on anaesthesia (footnote to Maintained anaesthesia) (pigs; bolus 3 mg/kg)
"CCOC(=O)CN1CCN(c2cccc(-n3cnc4cc(C(=O)OCCOC)ccc43)c2)CC1 [Compound 1b, 2-Methoxyethyl 1-(3-(4-(ethoxy-carbonyl-methyl)-1-piperazinyl)-phenyl)-benzimidazole-5-carboxylate]",0.9,1.6,200,6.59,1.3,10^ min.,15,,
"CCOC(=O)CN1CCC(c2cccc(-n3cnc4cc(-c5ccoc5)ccc43)c2)CC1 [Compound 7g, 5-(3-Furanyl)-1-(3-(1-ethoxycarbonylmethyl-4-piperidyl)-phenyl)-benzimidazole]",1.4,1.2,200,9.05,,,,114.5 to 115 °C and 114 to 115 °C,
"CCOC(=O)N1CCN(c2cccc(-n3cnc4cc(-c5ccoc5)ccc43)c2)CC1 [Compound 7i, 5-(3-Furanyl)-1-(3-(1-ethoxycarbonyl-4-piperazinyl)-phenyl)-benzimidazole]",1.8,2.5,140,9.10,,,,131 to 132 °C,
"CC(=O)N1CCN(CCOC(=O)c2cccc(-n3cnc4cc(-c5ccoc5)ccc43)c2)CC1 [Compound 7j, 2-(1-Acetyl-4-piperazinyl)-ethyl 3-(5-(3-furanyl)-1-benzimidazolyl)-benzoate]",1.9,13,170,8.55,0.5,8^a min.,20,,^aUneasy sleep
